Values quoted from earlier work as cited in patent publication US8563554B2, “Deuterated pyrazinoisoquinoline compounds” (Concert Pharmaceuticals, Inc., priority 2009, dated 2013).

dose excreted in the kidneys (share of a dose of praziquantel): Approximately 80%
excreted in the form of metabolites (share of the renally excreted dose present as metabolites): > 99%
SMILES: O=C(C1CCCCC1)N1CC(=O)N2CCc3ccccc3C2C1 (centres unmarked) [praziquantel, 2-(cyclohexylcarbonyl)-1,2,3,6,7,11b-hexahydro-4H-pyrazino[2,1-a]isoquinolin-4-one]
